From patent publication US4647564A, “Inotropic agents” (Eli Lilly and Company, priority 1986, dated 1987)

Experiments:
[1] = test system: Ventricular contractility in the conscious dog; assay: Ventricular contractility in the conscious dog (oral); assay type: in vivo; details: Canis lupus familiaris, oral (gelatin capsules), by interpolation, read-out: ED50 (dose required to produce a peak increase in contractility of 50%)
Text: (§1) The compounds of Formula I are particularly useful as inotropic agents due to their potency, long action of effect, and oral efficacy and are therefore useful in the treatment and prevention of heart failure. For example, the compounds of this invention were examined as to their pharmacodynamic effects on the following test systems. For comparison, 1,3-dihydro-5-(1,4,5,6-tetrahydro-6-oxo-3-pyridazinyl)-2H-indol-2-one (Compound A) and 4,4-dimethyl-1,2,3,4-tetrahydro-6-(1,4,5,6-tetrahydro-6-oxo-3-pyridazinyl)quinolin-2-one (Compound B) as taught in U.S. Pat. No. 4,258,185 (although named somewhat differently), were also tested.
Mongrel dogs of either sex weighing 15-36 kg were chronically instrumented to monitor peak systolic pressure, heart rate, left ventricular pressure and its first derivative, LVdP/dt at 60 mm of mercury. Under halothane-nitrous oxide anesthesia, a precalibrated Konigsberg P22 Pressure Transducer was implanted into the left ventricle through a stab wound at the apex. Following recovery from surgery, a minimum of two weeks was allowed to train the dogs to lie quietly for four-hour periods. This conditioning was necessary to obtain stable, reproducible results from day to day. Dogs were fasted eighteen hours before an experiment. Gross behavioral observations of animals were made throughout each study. Compounds or placebo (lactose) were administered in gelatin capsules. The maximum effects on contractility at various dose levels were determined and plotted and the dose required to produce a 50-percent increase in contractility (ED50) was determined by interpolation.

Cat papillary muscles = assay: Positive inotropic activity in isolated cat papillary muscles; assay type: cell-based; details: Felis catus, control = 100 percent, average of 2 to 8 muscles, read-out: Contractility of papillary muscle, peak response; for activity at 100 µM: 10^-4 M; for activity at 10 µM: 10^-5 M
Text: as §1
Cats of either sex were anesthetized with Metofane (1,1-difluoro-2,2-dichloroethyl methyl ether, Pittman-Moore). Their hearts were immediately removed and the papillary muscles dissected and suspended in individual organ baths. A platinum hook secured one end of the muscle to an electrode mounted in the bottom of the bath, and a silk thread attached the tendon to a Statham isometric transducer. The baths contained Krebs-Henseleit solution (36° C., bubbled with 95 percent oxygen--5 percent carbon dioxide) of the following millimolar composition: NaCl, 118; KCl, 4.5; CaCl2, 2.5; KH2 PO4, 1.1; MgSO4, 1.2; NaHCO3, 25; and glucose, 11.
A base-line tension of 1.5 g was applied to each muscle. Square-wave pulses (5.0 msec. in duration, three times threshold voltage) delivered through the hook electrode and a second electrode positioned near the top of the muscle evoked 12 contractions/minute, which were recorded on a Grass polygraph. After the muscles had equilibrated for 60 minutes, the recorder gain was adjusted so that the pen deflected 10 mm. The test compound was introduced in a solution of normal saline in an amount to bring the final concentration of the compound to 10^-5 or 10^-4 molar. Increases in contractility were tabulated as millimeters of pen deflection in excess of the baseline value. In each experiment the maximum contractility was measured. Test results are summarized in Table I and are expressed as percent of control (control=100 percent). Values are the average of results from 2 to 8 muscles.

[2] = test system: Ventricular contractility in the anesthetized dog; assay: Ventricular contractility in the anesthetized dog (i.v.); assay type: in vivo; details: Canis lupus familiaris, iv, i.v. bolus, by interpolation, read-out: ED50 (dose required to produce a peak increase in contractility of 50%)
Text: as §1
Mongrel dogs of either sex ranging in weight for 7 to 14 kg were used. Anesthesia was induced with sodium pentobarbital (30 mg/kg, i.v.) and maintained with supplemental doses as required. A positive-pressure pump was used to ventilate the dogs through an endotracheal tube (18 strokes/minute, 20 ml/kg stroke^-1), and a heating pad kept the body temperature at 37°-38° C.
Femoral arterial blood pressure was measured through a polyethylene catheter filled with heparin solution (16 units/ml) and connected to a Statham pressure transducer. A strain-gauge arch sutured to the right ventricle of the heart measured cardiac contractility. Tension on the gauge was adjusted to 50 g and the gain of the recorder (Beckman dynograph) was set so that 50 g caused a 10-mm pen deflection. Cardiac contractile tension was measured as millimeters of pen deflection or grams of tension. The test compounds were administered as an i.v. bolus (2-5 ml) in a normal saline vehicle following a 30-45 minute equilibrium period. […] The maximum effects on contractility at various dose levels were determined and plotted and the dose required to produce a 50 % increase in contractility (ED50) was determined by interpolation.

Compound | ED50 [1] | activity at 100 µM (Cat papillary muscles) | activity at 10 µM (Cat papillary muscles) | ED50 [2]
O=C1CCC(c2ccc3c(c2)CC(=O)N3)=NN1 [Compound A, 1,3-dihydro-5-(1,4,5,6-tetrahydro-6-oxo-3-pyridazinyl)-2H-indol-2-one, reference compound] | 0.5 mg/kg | 152% | 147% | 0.01 mg/kg
CC1(C)CC(=O)Nc2ccc(C3=NNC(=O)CC3)cc21 [Compound B, 4,4-dimethyl-1,2,3,4-tetrahydro-6-(1,4,5,6-tetrahydro-6-oxo-3-pyridazinyl)quinolin-2-one, reference compound] | > 0.5 mg/kg | 169% | 178% | 0.048 mg/kg
CC1(C)C(=O)Nc2ccc(C3=NNC(=O)CC3)cc21 [Example 1, 1,3-Dihydro-3,3-dimethyl-5-(1,4,5,6-tetrahydro-6-oxo-3-pyridazinyl)-2H-indol-2-one] | 0.025 mg/kg | 208% | 202% | 0.005 mg/kg
CN1C(=O)C(C)(C)c2cc(C3=NNC(=O)CC3)ccc21 [Example 2, 1,3-Dihydro-1,3,3-trimethyl-5-(1,4,5,6-tetrahydro-6-oxo-3-pyridazinyl)-2H-indol-2-one] | > 0.4 mg/kg |  |  | 0.01 mg/kg
CC1CC(=O)NN=C1c1ccc2c(c1)C(C)(C)C(=O)N2C (stereo not shown) [Example 3, 1,3-Dihydro-1,3,3-trimethyl-5-(1,4,5,6-tetrahydro-4-methyl-6-oxo-3-pyridazinyl)-2H-indol-2-one] |  |  |  | 0.005 mg/kg
Cc1cc(C2=NNC(=O)CC2)cc2c1NC(=O)C2(C)C [Example 4, 1,3-Dihydro-3,3,7-trimethyl-5-(1,4,5,6-tetrahydro-6-oxo-3-pyridazinyl)-2H-indol-2-one] |  |  |  | 0.0085 mg/kg
Cc1cc2c(cc1C1=NNC(=O)CC1)C(C)(C)C(=O)N2 [Example 5, 1,3-Dihydro-3,3,6-trimethyl-5-(1,4,5,6-tetrahydro-6-oxo-3-pyridazinyl)-2H-indol-2-one] |  |  |  | 0.02 mg/kg
CC1CC(c2ccc3c(c2)C(C)(C)C(=O)N3)=NNC1=O (stereo not shown) [Example 6, 1,3-Dihydro-3,3-dimethyl-5-(1,4,5,6-tetrahydro-5-methyl-6-oxo-3-pyridazinyl)-2H-indol-2-one] |  |  |  | 0.021 mg/kg
CC1CC(=O)NN=C1c1ccc2c(c1)C(C)(C)C(=O)N2 (stereo not shown) [Example 7, 1,3-Dihydro-3,3-dimethyl-5-(1,4,5,6-tetrahydro-4-methyl-6-oxo-3-pyridazinyl)-2H-indol-2-one] | 0.05 mg/kg |  |  | 0.0025 mg/kg
CC1C(=O)Nc2ccc(C3=NNC(=O)CC3)cc21 (stereo not shown) [Example 8, 1,3-Dihydro-3-methyl-5-(1,4,5,6-tetrahydro-6-oxo-3-pyridazinyl)-2H-indol-2-one] | 0.025 mg/kg |  |  | 0.0063 mg/kg
